pIC50: −log10 of the molar value.
How the values were obtained:
[1] = target: T1, Thyroid hormone receptor alpha (Homo sapiens, UniProt P10827); test: Binding affinity to human TRalpha1
T1 sequence (P10827 whole entry): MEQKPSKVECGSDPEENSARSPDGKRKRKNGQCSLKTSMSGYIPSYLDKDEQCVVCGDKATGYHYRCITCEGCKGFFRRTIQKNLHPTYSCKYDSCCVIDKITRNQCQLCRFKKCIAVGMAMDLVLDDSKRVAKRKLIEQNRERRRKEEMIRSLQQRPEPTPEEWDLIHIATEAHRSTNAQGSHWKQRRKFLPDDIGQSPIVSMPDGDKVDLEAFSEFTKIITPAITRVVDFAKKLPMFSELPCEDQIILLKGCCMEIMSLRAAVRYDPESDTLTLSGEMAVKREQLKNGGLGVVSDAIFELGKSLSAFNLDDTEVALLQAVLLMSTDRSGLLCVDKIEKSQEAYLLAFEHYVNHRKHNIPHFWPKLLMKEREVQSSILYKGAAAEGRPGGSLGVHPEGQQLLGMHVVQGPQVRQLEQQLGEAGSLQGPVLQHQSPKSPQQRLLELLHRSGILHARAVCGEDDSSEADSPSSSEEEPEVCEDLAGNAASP

Rattus norvegicus [2] = test: Decrease in heart rate in orally dosed cholesterol-fed Sprague-Dawley rat relative to control; format: functional; set-up: scale not given: the % may be the effect or the level left
Rattus norvegicus [3] = test: Increase in LDL cholesterol level in orally dosed cholesterol-fed Sprague-Dawley rat relative to control; format: functional
[4] = target: T1, Thyroid hormone receptor alpha; test: Activity at human TR-alpha-1 transfected in CHO K1 cells by alkaline phosphatase reporter gene assay
[5] = target: T2, Thyroid hormone receptor beta (Homo sapiens, UniProt P10828); test: Activity at human TR-beta-1 transfected in CHO K1 cells by alkaline phosphatase reporter gene assay
T2 sequence (P10828 whole entry): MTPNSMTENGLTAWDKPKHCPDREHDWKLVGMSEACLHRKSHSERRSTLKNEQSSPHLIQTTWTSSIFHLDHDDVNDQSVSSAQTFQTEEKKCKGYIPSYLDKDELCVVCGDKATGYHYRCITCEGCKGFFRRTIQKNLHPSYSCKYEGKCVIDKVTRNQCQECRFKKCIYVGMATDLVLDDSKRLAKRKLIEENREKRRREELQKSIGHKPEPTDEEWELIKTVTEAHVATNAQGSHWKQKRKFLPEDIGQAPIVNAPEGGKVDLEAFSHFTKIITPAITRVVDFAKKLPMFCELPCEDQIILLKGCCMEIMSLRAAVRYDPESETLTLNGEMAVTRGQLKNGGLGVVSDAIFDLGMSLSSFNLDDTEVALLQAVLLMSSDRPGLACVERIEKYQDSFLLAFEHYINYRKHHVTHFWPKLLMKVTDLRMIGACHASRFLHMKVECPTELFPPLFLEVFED

[6] = target: T2, Thyroid hormone receptor beta; test: Binding affinity to human TRbeta1

Compound: CC(C)c1cc(Oc2c(Br)cc(CCC(=O)O)cc2Br)cc(/C=C/c2ccncc2)c1O
- pIC50 [1]: 7.44
- Activity (Rattus norvegicus [2]): -10%
- Activity (Rattus norvegicus [3]): 13%
- pIC50 [4]: 7.49
- pIC50 [5]: 7.49
- pIC50 [6]: 7.66

Compound: O=C(O)CCc1ccccc1OCC1C(Br)CCCC1Br (stereo not drawn)
- pIC50 [1]: 6.34
- pIC50 [6]: 6.72

Source: ChEMBL document CHEMBL1137319, “Thyroid receptor ligands. 6. A high affinity "direct antagonist" selective for the thyroid hormone receptor” (J Med Chem, 2006)
